Measurements published in publication PMC5094908 (Journal of applied toxicology : JAT, 2016).
Entries after “also recorded” stand apart in the source; their conditions may differ. Like-named read-outs stand apart in the source and are kept apart here.

Tests used:
LUHMES and dLUHMES cells [1] = conditions: 6 h, 6HD 1 µM
LUHMES and dLUHMES cells [2] = system: LUHMES and dLUHMES cells
[3] = system: Caspase 3/7 activity in SH-SY5Y and dSH-SY5Y cells; assay: Caspase-Glo 3/7 luminescence assay, 24 h; type: cell-based
[4] = system: Caspase 3/7 activity in NSC and dNSC cells; type: cell-based, human; conditions: 24 h, threshold […] above control
NSC and dNSC cells = conditions: 24 h exposure, [ATP], 0.78 to 100 µM
[5] = system: Caspase 3/7 activity in LUHMES and dLUHMES cells; assay: Caspase-Glo 3/7 luminescence assay, 24 h; type: cell-based, human; conditions: dLUHMES, 24 h, threshold […] above control
[6] = system: SH-SY5Y and dSH-SY5Y cells; conditions: 24 h exposure, [ATP], 0.78 to 100 µM
[7] = system: HEK293, SH-SY5Y, SK-N-SH, or N2a; conditions: cited from earlier work
[8] = system: SH-SY5Y and dSH-SY5Y cells; assay: qPCR of apoptosis-pathway genes after 6 h toxicant treatment; type: cell-based, human; conditions: for BAG3 expression: both SH-SY5Y and dSH-SY5Y
[9] = system: SH-SY5Y, LUHMES, NSC, dSH-SY5Y, dLUHMES, dNSC
[10] = 24 h exposure, 0.78 to 100 µM, vs SH-SY5Y/dSH-SY5Y and NSC/dNSC
[11] = 24 h exposure, [ATP], 0.78 to 100 µM
[12] = SH-SY5Y and dSH-SY5Y (either cell type), MAP 12.5 µM, DTCM 10 µM, MALG 1.56 µM, MHG 1.56 µM, RSR 10 µM
[13] = MAP 12.5 µM, DTCM 10 µM, MALG 1.56 µM, MHG 1.56 µM, RSR 10 µM

SMILES: NCCc1cc(O)c(O)cc1O [6HD, 6-hydroxydopamine]
- expression of a series of apoptosis-related genes (LUHMES and dLUHMES cells [1]; LUHMES): not observed
- expression of BCL2A1 and IL10 (LUHMES and dLUHMES cells [1]; dLUHMES): increased expression
- expression of a series of apoptosis-related genes (LUHMES and dLUHMES cells [1]; dLUHMES): increased expression
- cytotoxic sensitivity ([ATP] IC50) of LUHMES and/or dLUHMES relative to the other cell lines (LUHMES and dLUHMES cells [2]; [10]): more sensitive than the other cell lines
- relative cytotoxic sensitivity of LUHMES versus dLUHMES cells (LUHMES and dLUHMES cells [2]; [11]): dLUHMES cells were markedly more sensitive than LUHMES cells
- peak Caspase 3/7 activities, ranking among compounds [3]: highest activities
- increase of Caspase 3/7 activity in dNSC [4]: but not dNSC
- relative cytotoxic sensitivity of NSC versus dNSC (NSC and dNSC cells): NSC more sensitive than dNSC

SMILES: Nc1ccn([C@@H]2O[C@H](CO)[C@@H](O)[C@@H]2O)c(=O)n1 [ARAC, Cytosine arabinoside]
- increase of Caspase 3/7 activity in dLUHMES [5]: but not dLUHMES
- relative cytotoxic sensitivity of LUHMES versus dLUHMES cells (LUHMES and dLUHMES cells [2]): LUHMES cells were more sensitive than dLUHMES cells
- cytotoxic sensitivity ([ATP] IC50) of LUHMES and/or dLUHMES relative to the other cell lines (LUHMES and dLUHMES cells [2]; [10]): more sensitive than the other cell lines
- peak Caspase 3/7 activities, ranking among compounds [3]: highest activities

SMILES: O=C1C2CC=CCC2C(=O)N1SC(Cl)(Cl)Cl (stereo not drawn) [CAP, Captan]
- cytotoxic sensitivity of dSH-SY5Y cells relative to SH-SY5Y cells [6]: slightly more sensitive
- In vitro neural selectivity: neural-derived cell lines 10-fold more sensitive (10-fold lower IC50) than the median of the other 9 cell lines [7]: SH-SY5Y ([Huang et al., 2008], [Xia et al., 2008])
- cytotoxic sensitivity ([ATP] IC50) of LUHMES and/or dLUHMES relative to the other cell lines (LUHMES and dLUHMES cells [2]; [10]): more sensitive than the other cell lines
- relative cytotoxic sensitivity of LUHMES versus dLUHMES cells (LUHMES and dLUHMES cells [2]; [11]): dLUHMES cells were markedly more sensitive than LUHMES cells

SMILES: COc1cc2c(c(OC)c1OC)-c1ccc(OC)c(=O)cc1[C@@H](NC(C)=O)CC2 [CLCH, Colchicine]
- In vitro neural selectivity: neural-derived cell lines 10-fold more sensitive (10-fold lower IC50) than the median of the other 9 cell lines [7]: HEK293, SH-SY5Y, SK-N- SH, N2a ([Huang et al., 2008], [Xia et al., 2008])
- cytotoxic sensitivity ([ATP] IC50) of LUHMES and/or dLUHMES relative to the other cell lines (LUHMES and dLUHMES cells [2]): more sensitive than the other cell lines

SMILES: O=C(O)CCCc1ccc(N(CCCl)CCCl)cc1 [CLM, Chlorambucil]
- increase of Caspase 3/7 activity in dLUHMES [5]: but not dLUHMES
- In vitro neural selectivity: neural-derived cell lines 10-fold more sensitive (10-fold lower IC50) than the median of the other 9 cell lines [7]: selective toxicity to SH-SY5Y cells; also recorded: SH-SY5Y, ([Huang et al., 2008], [Xia et al., 2008])
- relative cytotoxic sensitivity of LUHMES versus dLUHMES cells (LUHMES and dLUHMES cells [2]): LUHMES cells were more sensitive than dLUHMES cells
- cytotoxic sensitivity ([ATP] IC50) of LUHMES and/or dLUHMES relative to the other cell lines (LUHMES and dLUHMES cells [2]; [10]): more sensitive than the other cell lines
- peak Caspase 3/7 activities, ranking among compounds [3]: highest activities

SMILES: COc1cccc2c1C(=O)c1c(O)c3c(c(O)c1C2=O)C[C@@](O)(C(C)=O)C[C@@H]3O[C@H]1C[C@H](N)[C@H](O)[C@H](C)O1 [DAUN, Daunorubicin]
- In vitro neural selectivity: neural-derived cell lines 10-fold more sensitive (10-fold lower IC50) than the median of the other 9 cell lines [7]: HEK293, SH-SY5Y, SK-N- SH, N2a ([Huang et al., 2008], [Xia et al., 2008])
- peak Caspase 3/7 activities, ranking among compounds [3]: highest activities

SMILES: C[C@H]1O[C@@H](O[C@H]2[C@@H](O)C[C@H](O[C@H]3[C@@H](O)C[C@H](O[C@H]4CC[C@@]5(C)[C@H](CC[C@@H]6[C@@H]5C[C@@H](O)[C@]5(C)[C@@H](C7=CC(=O)OC7)CC[C@]65O)C4)O[C@@H]3C)O[C@@H]2C)C[C@H](O)[C@@H]1O [DGX, Digoxin]
- cytotoxic sensitivity ([ATP] IC50) of LUHMES and/or dLUHMES relative to the other cell lines (LUHMES and dLUHMES cells [2]): more sensitive than the other cell lines

SMILES: COc1cccc2c1C(=O)c1c(O)c3c(c(O)c1C2=O)C[C@@](O)(C(=O)CO)C[C@@H]3O[C@H]1C[C@H](N)[C@H](O)[C@H](C)O1 [DOX, Doxorubicin]
- In vitro neural selectivity: neural-derived cell lines 10-fold more sensitive (10-fold lower IC50) than the median of the other 9 cell lines [7]: HEK293, SH-SY5Y, SK-N- SH ([Huang et al., 2008], [Xia et al., 2008])
- peak Caspase 3/7 activities, ranking among compounds [3]: highest activities

SMILES: N#CSCSC#N [DTCM, Dithiocyanatomethan]
- cytotoxic sensitivity of dSH-SY5Y cells relative to SH-SY5Y cells [6]: slightly more sensitive
- increase of Caspase 3/7 activity in dLUHMES [5]: but not dLUHMES
- BIRC5 gene expression [8, 12]: down-regulation
- BIRC3 gene expression ([8]; SH-SY5Y, DTCM 10 µM): down-regulation
- FAS mRNA ([8]; SHSY5Y, DTCM 10 µM): down-regulated
- BAG3 expression [8, 13]: increased expression
- BIRC3 gene expression ([8]; dSH-SY5Y, DTCM 10 µM): did not respond detectably
- FASL mRNA ([8]; dSH-SY5Y, DTCM 10 µM): unchanged
- In vitro neural selectivity: neural-derived cell lines 10-fold more sensitive (10-fold lower IC50) than the median of the other 9 cell lines [7]: SH-SY5Y ([Huang et al., 2008], [Xia et al., 2008])
- cytotoxic sensitivity ([ATP] IC50) of LUHMES and/or dLUHMES relative to the other cell lines (LUHMES and dLUHMES cells [2]; [10]): more sensitive than the other cell lines
- relative cytotoxic sensitivity of LUHMES versus dLUHMES cells (LUHMES and dLUHMES cells [2]; [11]): dLUHMES cells were markedly more sensitive than LUHMES cells

SMILES: O=c1c(-c2ccc(O)cc2)coc2cc(O)cc(O)c12 [GEN, Genistein]
- increase of Caspase 3/7 activity in dLUHMES [5]: but not dLUHMES

SMILES: CN(C)c1ccc(C(=C2C=CC(=[N+](C)C)C=C2)c2ccccc2)cc1.CN(C)c1ccc(C(=C2C=CC(=[N+](C)C)C=C2)c2ccccc2)cc1.O=C(O)C(=O)O.O=C([O-])C(=O)O.O=C([O-])C(=O)O [MALG, Malachite green oxalate]
- cytotoxic sensitivity of LUHMES, dLUHMES, NSC and dNSC compared with each other [9]: comparable sensitivity
- BIRC5 gene expression [8, 12]: down-regulation
- BIRC3 gene expression ([8]; SH-SY5Y and dSH-SY5Y (either cell type), MAP 12.5 µM, MALG 1.56 µM, MHG 1.56 µM, RSR 10 µM): down-regulation
- BAG3 expression [8, 13]: increased expression
- peak Caspase 3/7 activities, ranking among compounds [3]: highest activities
